Assay results as given in patent US7678365B2, “Disinfecting oral rinse compositions and process for using the same” (priority 2001, dated 2010).

Columns and labels:
E. coli = test: AOAC Germicidal Test procedure; format: cell-based; settings: for E. coli organisms destroyed/killed: initial inoculum of E. coli 7.63 logs10/ml, equimolar amounts of the unionized acid form
Description: […]. […] […].

[1] = Acid ionization constants and lactic acid/lactate speciation; format: physicochemical
Description: […]. When citric acid is used as the supplemental acid, less total acid is required to achieve a desired pH than, say, when using malic acid, which is half the strength of citric (Ka1 of citric is 8.2×10^−4 vs. 3.9×10^−4 for malic acid). Thus a smaller amount of lactic acid is used when it represents, say, 10% of a lactic/citric combination than a lactic/malic combination; […]. In certain embodiments, the metal lactate in these compositions is an alkali, an alkaline earth lactate, or a heavier metal lactate. […]. Useful alkaline earth metal lactates include magnesium and calcium lactate. Available heavier metal lactates are ferrous and aluminum lactates, although the cation flavor is intrusive. […]. At pH 2.5 96% of the two lactic species exist as lactic acid, which drops to 70% at pH 3.5. […].
The acid and chlorite solutions had first been equilibrated at 37° C., to simulate body temperature. The solution pHs, in both cases, were 3.0. After 10 minutes, the solution Absorbance values were measured at a wavelength of 360 nm in a spectrophotometer, and the concentration of chlorine dioxide (ClO2) then calculated, using the molar extinction coefficient of 1,242 liter/mole.cm. […]

Row | Structure (SMILES) | E. coli organisms destroyed/killed (E. coli) [logs10/ml] | fraction of the two lactic species existing as lactic acid ([1]; pH 2.5) [%] | fraction of the two lactic species existing as lactic acid ([1]; pH 3.5) [%] | fraction of the two lactic species existing as lactic acid ([1]; pH 4.0) [%] | residual E. coli organisms per ml after disinfection, malic acid-treated relative to lactic acid-treated suspension (E. coli; malic acid vs lactic acid) [times]
1 | CC(O)C(=O)O (stereo not drawn) [lactic acid] | 4.15 | 96 | 70 | 42 | 
2 | O=C(O)CC(O)C(=O)O (stereo not drawn) [malic acid] | 1.45 |  |  |  | ~1500
